Three compounds from patent publication US6787672B2, “Substituted chalcones as therapeutic compounds” (Cancer Research Technology Limited, priority 2000, dated 2004) can be followed below.

Molecules are shown by their SMILES. Where two headings read alike, the source gives them in different places.

The test system of series [1] is breast cancer cell line MCF-7. Nature of the series: MTT assay, tumour cell growth inhibition, breast MCF-7. In kind it is cell-based, human. The settings on record: for IC50: Homo sapiens, MCF7, Breast MCF-7, MTT, 96 h, read-out: IC50, dose required for 50% inhibition of tumour cell growth. The source says:
(§1) The human tumour cell lines were the breast cancer cell line MCF-7, the colon cancer cell line HCT-116, and the lung cancer cell line A-549. The MTT assay was used, which exploits the ability of living cells to metabolise the water soluble tetrazolium salt 3-[4,5-dimethylthiazol-2yl-2,5-diphenyl tetrazolium bromide (MTT) into a water insoluble formazan precipitate (Carmichael et al, 1987). The purple precipitate can then be dissolved in an organic solvent and the optical density determined as a measure of cell survival. Compounds were tested concurrently for a true comparison.
(§2) The compound under study was dissolved in DMSO to yield a 10 mM stock solution. […] Cells were seeded into sterile flat-bottomed 96-well plates at a known initial seeding density (MCF-7 1.5×10E3, HCT-116 1×10E3, A549 2×10E3). The cells were plated in RPMI 1640 medium supplemented with 10% heat-inactivated Foetal Calf Serum solution. The plates were then incubated for 24 h at 37° C., 5% CO2 to allow cell adherence. 20 μl of the appropriate drug dilution (from serial dilutions in medium from 10 mM stock) was added to the wells (to give a final well volume of 200 μl). Plates were returned to the incubator for 96 h, and then 50 μl of MTT was added to each well. After a further 4 h incubation, the medium and any unconverted MTT was aspirated from the wells and the formazan precipitate dissolved by the addition of 100 μl of DMSO and several minutes agitation. The absorbance at A450 was then recorded on a plate reader, and the results expressed as a % survival of DMSO treated controls.
In general terms: Formazan colour is commonly taken as a measure of viable cells.

Series [2] deals with colon cancer cell line HCT-116. The series can be described thus: MTT assay, tumour cell growth inhibition, colon HCT-116. Particulars: for IC50: Homo sapiens, Colon HCT-116, MTT, 96 h. In kind it is cell-based, human.
Description: as §1, §2

Series [3] relates to lung cancer cell line A-549. The series can be described thus: MTT assay, tumour cell growth inhibition, lung A-549. Type of series: cell-based, human. Particulars: for IC50: Homo sapiens, A549, Lung A-549, MTT, 96 h, read-out: IC50, dose required for 50% inhibition of tumour cell growth.
Description: as §1, §2

For another series, the target named is T1, CYP1B1 enzyme (Homo sapiens, UniProt Q16678).
T1 construct: A microsomal preparation of human tumour tissue expressing the CYP1B1 enzyme was prepared; from tissue; host or cells: human tumour tissue (microsomal preparation)
T1 sequence (Q16678 1-543): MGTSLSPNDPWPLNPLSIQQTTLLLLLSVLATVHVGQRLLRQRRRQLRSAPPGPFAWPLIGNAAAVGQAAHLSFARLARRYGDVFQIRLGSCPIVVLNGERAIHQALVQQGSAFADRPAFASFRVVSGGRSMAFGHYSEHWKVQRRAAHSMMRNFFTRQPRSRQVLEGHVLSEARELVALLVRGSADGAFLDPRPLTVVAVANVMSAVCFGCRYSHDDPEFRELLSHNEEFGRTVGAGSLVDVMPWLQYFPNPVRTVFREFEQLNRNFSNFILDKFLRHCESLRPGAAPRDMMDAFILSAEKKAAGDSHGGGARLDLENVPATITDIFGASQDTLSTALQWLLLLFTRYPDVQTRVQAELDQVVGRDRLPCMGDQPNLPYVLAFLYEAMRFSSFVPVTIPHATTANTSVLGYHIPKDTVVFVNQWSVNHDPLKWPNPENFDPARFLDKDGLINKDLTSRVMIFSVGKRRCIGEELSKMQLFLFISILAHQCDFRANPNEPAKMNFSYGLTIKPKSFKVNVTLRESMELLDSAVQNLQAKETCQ
The series can be described thus: Metabolism by microsomal preparation of human tumour tissue expressing CYP1B1, HPLC. In kind it is in vitro ADME. Particulars: human tumour microsomes, NADPH, 1 h, 37° C., pH 7.6. Here is the method: A microsomal preparation of human tumour tissue expressing the CYP1B1 enzyme was prepared essentially as described by the method of Barrie et al., 1989. The experiment was carried out at 37° C., under yellow light. An array of 1.5 ml centrifuge tubes were set up in a water bath shaker-under aerobic conditions. To each tube was then added 500 μl of pH 7.6 buffer (0.1 M NaK2PO4), followed by NADPH (5 μl of a 25 mM stock solution). The microsomal preparation (80 μl) was then added and the tubes preincubated for 5 min at 37° C.
The prodrug substrate, compound II, was then added (10 μl of a 5 mM stock solution) and incubated for 1 h at 37° C. After 1 h the tubes were transferred to an ice/water cooling bath (0° C.). The tubes were then centrifuged at 15,000 rpm for 30 min. A sample of the supernatant (100 μl) was then taken and analysed by HPLC. HPLC conditions: Spherisorb C18 (25 cm×4.6 mm id), used without guard column. Flow rate 1 ml/min. Eluent 75% 0.1 M KH2PO4 and 25% acetonitrile.
The hydroxylated metabolite, compound III, was detected by HPLC, and confirmed by comparison with the authentic hydroxylated synthetic compound III.

A further series deals with splenocytes. Nature of the series: Splenocyte anti-proliferation assay (Con A stimulated, tritiated thymidine). Type of series: cell-based. The settings on record: FIG. 1, triplicate. The source says: The anti-inflammatory effects of Compound II (DMU-120) were examined (in triplicate) using a splenocyte anti-proliferation assay.
The splenocyte anti-proliferation assay has been developed to identify compounds that have useful anti-inflammatory properties for the treatment of auto-inflammatory diseases such as rheumatoid arthritis. See, for example, Yamashita et al., 1994. This well known assay is described in detail in, for example, Mosmann, 1983. In this assay, splenocyte proliferation is stimulated by the inflammatory response inducer conconavilin A (Con A). Cell proliferation is monitored by detecting radiation (counts per minute, cpm) from a radio label (tritiated thymidine) which is incorporated only into proliferating cells.
The compound was assayed as a solution in dimethylsulfoxide (DMSO) as solvent. The solvent control is also shown for comparison. Other controls are also shown. “ConA” denotes the signal (cpm) detected for a control where cell proliferation is stimulated by ConA in the absence of a test compound. “Med” denotes the signal (cpm) detected for the cell culture medium alone. “Bkg” denotes the background radiation level (cpm).

Where [4] appears, read: read-out: IC50, dose required for 50% inhibition of tumour cell growth.

The compound `COc1ccc(/C=C/C(=O)c2cc(OC)cc(OC)c2)cc1` [Compound II, (E)-1-(4-Methoxyphenyl)-3-(3,5-dimethoxyphenyl)prop-1-en-3-one] gave a melting point of 87 to 88 °C. In series [1] (Breast MCF-7, IC50 Compound II / IC50 Compound III), the “Selectivity Factor (Prodrug/Metabolite)” value was 1100. Also, in series [1], the IC50 was found to be 690 nM. For the same compound, in series [2] (Colon HCT-116, IC50 Compound II / IC50 Compound III), the “Selectivity Factor (Prodrug/Metabolite)” value was determined as 15000. Besides, the IC50 in series [2] (setting [4]) stood at 1200 nM. Moreover, in series [3], the IC50 worked out at 6600 nM. Also, the “Selectivity Factor (Prodrug/Metabolite)” value in series [3] (Lung A-549, IC50 Compound II / IC50 Compound III) is reported as 80. At CYP1B1 enzyme, the “Metabolic conversion by CYP1B1 (aromatic hydroxylation)” value is given as “converted to the hydroxylated metabolite compound III”. In addition, in the series with splenocytes, the “Concentration showing anti-inflammatory effects on splenocyte proliferation” value is given as “less than 10 μM”.

Compound `COc1cc(OC)cc(C(=O)/C=C/c2ccc(OC)c(O)c2)c1` [Compound III, (E)-1-(3-Hydroxy-4-methoxyphenyl)-3-(3,5-dimethoxyphenyl)prop-1-en-3-one] gave a melting point of 129 °C. Further, in series [1], the IC50 was found to be 0.65 nM. The IC50 in series [2] (setting [4]) was 0.08 nM. In addition, in series [2] (read-out: IC50 against colon tumour cell line HCT-116, restated in nM), the IC50 came out at 0.08 nM. For the same compound, the concentration for half-maximal inhibition (IC50) in series [3] was 80 nM.

Consider `COc1cc(OC)cc(C(=O)/C=C/c2ccc(OC)cc2OC)c1` [Compound IV, (E)-1-(2,4-dimethoxyphenyl)-3-(3,5-dimethoxyphenyl)prop-1-en-3-one], for which, in series [1], the IC50 came out at 0.1 nM.

The term IC50 denotes the concentration that gives 50% inhibition. Broadly, the melting point is the temperature of the solid-liquid transition.
